Biological target: T1, human APJ receptor (Homo sapiens, UniProt P35414)
T1 construct: expressed in transfected cells; host or cells: HEK293
T1 sequence (P35414 1-380): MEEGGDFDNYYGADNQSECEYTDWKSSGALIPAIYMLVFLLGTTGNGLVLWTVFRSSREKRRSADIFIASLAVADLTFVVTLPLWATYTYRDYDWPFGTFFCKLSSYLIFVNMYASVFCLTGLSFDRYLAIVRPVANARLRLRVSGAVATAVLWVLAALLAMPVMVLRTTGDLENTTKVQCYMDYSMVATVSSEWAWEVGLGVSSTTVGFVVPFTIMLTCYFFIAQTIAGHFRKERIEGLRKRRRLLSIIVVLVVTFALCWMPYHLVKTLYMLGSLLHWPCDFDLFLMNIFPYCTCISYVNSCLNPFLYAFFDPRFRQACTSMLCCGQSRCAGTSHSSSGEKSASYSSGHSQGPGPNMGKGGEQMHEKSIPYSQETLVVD
Test: Intracellular cAMP accumulation assay (APJ hcAMP, HTRF)
Type: cell-based
Conditions: HEK293 cells stably expressing human APJ receptor; inhibition of forskolin-mediated cAMP production; read-out: APJ cAMP Potency range
Protocol: Intracellular cAMP Accumulation Assay
HEK293 cells stably expressing human APJ receptor were used to assess the activity of compounds. Cultured cells were detached and resuspended in the cAMP Homogeneous Time-Resolved Fluorescence (HTRF) assay buffer (Cisbio cat; #62AM4PEJ). The assay was performed in 384-well assay plates (Perkin-Elmer; cat #6008289) according to assay protocol provided by the manufacturer. Serial dilutions of a compound together with assay buffer containing […] IBMX and 2 μM forskolin were added to each well containing 5,000 cells and incubated for 30 minutes at room temperature. Subsequently, cAMP D2 reagent was added in the lysis buffer followed by the EuK antibody (Cisbio; cat #62AM4PEJ) and incubated for 60 min. The fluorescence emission ratio was measured using fluorometer. The intracellular cAMP concentrations (compound-stimulated inhibition of forskolin-mediated cAMP production) were calculated by extrapolation from a standard curve using known cAMP concentrations. The EC50 values were obtained by fitting the data to a sigmoidal concentration-response curve with variable slope. The maximal achievable inhibition of forskolin-induced cAMP levels (Ymax) for each compound was expressed as relative percentage of inhibition attained using pyroglutamated apelin-13 ((Pyr1)apelin-13) peptide, which was set to 100%.
The examples disclosed below were tested in the APJ in vitro assays described above and were found having human APJ cyclic AMP (hcAMP) activity. The EC50 value of each compound is presented at the end of the example description.
The biological activity of the exemplified compounds of this invention determined by the assay described above is shown at the end of each example.

| Compound | EC50 [nM] |
| --- | --- |
| CCCCc1nc(O)c(Cc2cnn(Cc3ccccc3)c2)c(=O)n1-c1c(OC)cccc1OC [Example 30, 5-[(1-benzyl-1H-pyrazol-4-yl)methyl]-2-butyl-3-(2,6-dimethoxyphenyl)-6-hydroxy-3,4-dihydropyrimidin-4-one] | 0.01 to 10 |
| CCOCc1nc(O)c(Cc2ccn(-c3ccc(Cl)cc3)n2)c(=O)n1-c1c(OC)cccc1OC [Example 31, 5-{[1-(4-chlorophenyl)-1H-pyrazol-3-yl]methyl}-3-(2,6-dimethoxyphenyl)-2-(ethoxymethyl)-6-hydroxy-3,4-dihydropyrimidin-4-one] | 10 to 100 |
| COc1cccc(OC)c1-n1c(CCC(C)C)nc(O)c(Cc2ccc(-n3ccccc3=O)cc2)c1=O [Example 34, 3-(2,6-dimethoxyphenyl)-6-hydroxy-2-(3-methylbutyl)-5-{[4-(2-oxo-1,2-dihydropyridin-1-yl)phenyl]methyl}-3,4-dihydropyrimidin-4-one] | 0.01 to 10 |
| CCCCc1nc(O)c(Cc2ccc(N3CCCCC3=O)cc2)c(=O)n1-c1c(OC)cccc1OC [Example 35, 2-butyl-3-(2,6-dimethoxyphenyl)-6-hydroxy-5-{[4-(2-oxopiperidin-1-yl)phenyl]methyl}-3,4-dihydropyrimidin-4-one] | 0.01 to 10 |
| CCCCc1nc(O)c(Cc2ccc(N3CCOCC3)cc2)c(=O)n1-c1c(OC)cccc1OC [Example 36, 2-butyl-3-(2,6-dimethoxyphenyl)-6-hydroxy-5-{[4-(morpholin-4-yl)phenyl]methyl}-3,4-dihydropyrimidin-4-one] | 0.01 to 10 |
| COc1cccc(OC)c1-n1c(COC2CCC2)nc(O)c(Cc2ccc(-n3ccccc3=O)cc2)c1=O [Example 39, 2-(cyclobutoxymethyl)-3-(2,6-dimethoxyphenyl)-6-hydroxy-5-{[4-(2-oxo-1,2-dihydropyridin-1-yl)phenyl]methyl}-3,4-dihydropyrimidin-4-one] | 0.01 to 10 |
| COc1cccc(OC)c1-n1c(COC2CC2)nc(O)c(Cc2ccc(-n3ccccc3=O)cc2)c1=O [Example 40, 2-(cyclopropoxymethyl)-3-(2,6-dimethoxyphenyl)-6-hydroxy-5-{[4-(2-oxo-1,2-dihydropyridin-1-yl)phenyl]methyl}-3,4-dihydropyrimidin-4-one] | 0.01 to 10 |

Continued, values first:

| EC50 [nM] | Compound |
| --- | --- |
| 0.01 to 10 | CCCCc1nc(O)c(Cc2ccc(-c3ccc(OC)cc3)nc2)c(=O)n1-c1c(OC)cccc1OC [Example 29, 2-butyl-3-(2,6-dimethoxyphenyl)-6-hydroxy-5-{[6-(4-methoxyphenyl)pyridin-3-yl]methyl}-3,4-dihydropyrimidin-4-one] |
| 10 to 100 | CCOCc1nc(O)c(Cc2ccc(-c3ncon3)cc2)c(=O)n1-c1c(OC)cccc1OC [Example 32, 3-(2,6-dimethoxyphenyl)-2-(ethoxymethyl)-6-hydroxy-5-{[4-(1,2,4-oxadiazol-3-yl)phenyl]methyl}-3,4-dihydropyrimidin-4-one] |
| 10 to 100 | CCOCc1nc(O)c(Cc2coc(-c3ccc(Cl)cc3)n2)c(=O)n1-c1c(OC)cccc1OC [Example 33, 5-{[2-(4-chlorophenyl)-1,3-oxazol-4-yl]methyl}-3-(2,6-dimethoxyphenyl)-2-(ethoxymethyl)-6-hydroxy-3,4-dihydropyrimidin-4-one] |
| 0.01 to 10 | COc1cccc(OC)c1-n1c(C2CCCC2)nc(O)c(Cc2ccc(-n3ccccc3=O)cc2)c1=O [Example 38, 2-cyclopentyl-3-(2,6-dimethoxyphenyl)-6-hydroxy-5-{[4-(2-oxo-1,2-dihydropyridin-1-yl)phenyl]methyl}-3,4-dihydropyrimidin-4-one] |

Same assay, conditions: HEK293 cells stably expressing human APJ receptor; inhibition of forskolin-mediated cAMP production; read-out: Human APJ cAMP EC50 potency range

| EC50 [nM] | Compound |
| --- | --- |
| 0.01 to 10 | COc1cccc(OC)c1-n1c(-c2ccc(F)cc2)nc(O)c(Cc2ccc(-n3cc(F)ccc3=O)cc2)c1=O [Example 37, 3-(2,6-dimethoxyphenyl)-5-(4-(5-fluoro-2-oxopyridin-1(2H)-yl)benzyl)-2-(4-fluorophenyl)-6-hydroxypyrimidin-4(3H)-one] |

— US11390616B2 (BRISTOL-MYERS SQUIBB COMPANY, priority 2015, dated 2022)
